Source: patent US10653658B2, “Biofilm inhibiting compositions enhancing weight gain in livestock” (Akeso Biomedical, Inc., priority 2015, dated 2020)
Marks after values point to notes of the source that are not given here.

Assay: Growth performance of broilers given FeQ or FeTyr in water/feed, dirty litter Campylobacter challenge at day 20 (Example 1)
Type: in vivo, Ross 308 male broilers
Settings: for AFD (average feed intake) Day 0-20 / AWG (average weight gain) Day 0-20 / MFCR (mortality adjusted) Day 0-20: before challenge
Experimental: A study was performed to evaluate growth promotion and reduction of Campylobacter carriage using FeQ and FeTyr in Ross 308 male broilers with 7 treatment groups. Each treatment group comprised four replicates of 10 birds per pen (40 birds/treatment group and 4 pens of 10 birds/treatment group), with 2 control groups and 5 test groups. All the test groups and one of the control groups were exposed at day 20 of the trial to dirty litter, which tested positive for Campylobacter. This method was used to provide a more natural method to Campylobacter challenge the birds. Thus there was a positive control where one treatment group was challenged with Campylobacter and one negative control group where the birds were not challenged, and five treatment groups that were all challenged with Campylobacter. The total number of birds used in the 7 treatment groups was 280. Treatment group 1 was a negative control where birds just received the commercial feed, and were not challenged with dirty litter containing Campylobacter. Treatment group 2 was the positive control where the birds received the commercial feed, and were challenged with dirty litter containing Campylobacter at day 20. Treatment group 3 received 0.22 g/L of FeQ in their drinking water and 0.22 g/Kg FeQ in their feed during the entire trial, and was challenged with dirty litter containing Campylobacter at day 20. Treatment group 5 received 0.22 g/L of FeQ in their drinking water during the entire trial, and was challenged with dirty litter containing Campylobacter at day 20. Treatment group 6 received 0.22 g/kg FeQ in their feed during the entire trial, and was challenged with dirty litter containing Campylobacter at day 20. Treatment group 7 received 0.022 g/L FeQ in their drinking water during the entire trial, and was challenged with dirty litter containing Campylobacter at day 20. Treatment group 8 received 0.02 g/L FeTyr in their drinking water during the entire trial, and was challenged with dirty litter containing Campylobacter at day 20. The FeTyr was pre-dissolved in DMSO, and diluted to provide a solution of 0.02 g/L of FeTyr in water. (An additional treatment group 4 was terminated due to solubility issues.)
The birds were fed with a commercial three-phase feeding program using starter, grower and finisher feeds with formulations shown in Table 2. All diets had coccidiostat (MAXIBAN® at 0.0625% in starter and […] and MONTEBAN® at 0.06% in finisher phase). Xylanase (RONOZYME® WX at 200 g per ton) and phytase (RONOZYME® P at 150 grams per ton) were added to all diets.
The feeding program is show in Table 3. The birds were reared in floor pens to day 42, and fed starter, grower and finisher feed at day 0 to 11, 11 to 24, and 24 to 42 days, respectively. All birds were weighed individually and feed weigh backs recorded per pen at day 0, 11, 21, 24 and 42 days.
Prior to challenging the chickens with dirty litter containing Campylobacter at day 20, each pen was tested for Campylobacter using cloacal swabs. All pens tested negative for Campylobacter prior to the challenge. At day 20, litter, which was naturally Campylobacter-contaminated, was tested to confirm the presence of Campylobacter, and then added (approximately 2 kg/pen) to the litter in all pens except in pens for treatment group 1 (the negative control). At day 28, the pen litter was sampled to confirm the presence or absence of Campylobacter. At day 41 and 42, caecal samples were taken from 3 birds per pen (12 birds per treatment group) and tested for Campylobacter enumeration. At day 42, digesta, fecal samples, and caecal content was taken from all birds, and pooled per pen. Two birds per pen were also taken from treatment groups 1-3, euthanized, and blood samples taken. […]

[1] = FeQ groups 3, 5, 6, 7 pooled, absence of Campylobacter challenge
[2] = treatment 3: 0.22 g/L FeQ in water + 0.22 g/kg FeQ in feed
[3] = treatment 5: 0.22 g/L FeQ in water
[4] = treatment 6: 0.22 g/kg FeQ in feed
[5] = treatment 7: 0.022 g/L FeQ in water

## O=C([O-])C1(O)CC(O)C(O)C(O)C1.O=C([O-])C1(O)CC(O)C(O)C(O)C1.O=C([O-])C1(O)CC(O)C(O)C(O)C1.[Fe+3] (centres unmarked) [FeQ, Ferric Quinate]
[1]
  ABW (average body weight) Day 11: 0.339 kg
  ABW (average body weight) Day 20: 0.963 kg
  AFD (average feed intake) 0-20 days: 1.191 kg
  AWG (average weight gain) 0-20 days: 0.923 kg
Compared with control groups 1 and 2
  effect on growth performance in the absence of Campylobacter challenge, first 20 days: promotes growth of chicken
[2]
  ABW (average body weight) Day 0: 0.040 kg
  ABW (average body weight) Day 11: 0.346 kg
  ABW (average body weight) Day 20: 0.972 kg
  ABW (average body weight) Day 25: 1.424 kg
  ABW (average body weight) Day 42: 3.342 kg
  AFD (average feed intake) Day 0-11: 0.356 kg
  AFD (average feed intake) Day 0-42: 5.267 kg
  AFD (average feed intake) Day 11-20: 0.857 kg
  AFD (average feed intake) Day 11-25: 1.524 kg
  AFD (average feed intake) Day 20-25: 0.667 kg
  AFD (average feed intake) Day 20-42: 4.054 kg
  AFD (average feed intake) Day 25-42: 3.387 kg
  AWG (average weight gain) Day 0-11: 0.306 kg
  AWG (average weight gain) Day 0-42: 3.302^ab kg
  AWG (average weight gain) Day 11-20: 0.625 kg
  AWG (average weight gain) Day 11-25: 1.078 kg
  AWG (average weight gain) Day 20-25: 0.453 kg
  AWG (average weight gain) Day 20-42: 2.370^ab kg
  AWG (average weight gain) Day 25-42: 1.918^ab kg
  EPEF (European production and efficiency factor) Day 20: 350.4
  EPEF (European production and efficiency factor) Day 42: 262.9
  MFCR (mortality adjusted FCR) Day 11-20: 1.375
  MFCR (mortality adjusted FCR) Day 11-25: 1.417
  MFCR (mortality adjusted FCR) Day 20-25: 1.477
  MFCR (mortality adjusted FCR) Day 25-42: 1.773
  MFCR (mortality adjusted feed conversion ratio) Day 0-11: 1.181^ab
  MFCR (mortality adjusted) Day 0-42: 1.595
  MFCR (mortality adjusted) Day 20-42: 1.713
  AFD (average feed intake) Day 0-20: 1.213 kg
  AWG (average weight gain) Day 0-20: 0.931 kg
  MFCR (mortality adjusted) Day 0-20: 1.310
[3]
  ABW (average body weight) Day 0: 0.040 kg
  ABW (average body weight) Day 11: 0.334 kg
  ABW (average body weight) Day 20: 0.943 kg
  ABW (average body weight) Day 25: 1.384 kg
  ABW (average body weight) Day 42: 3.407 kg
  AFD (average feed intake) Day 0-11: 0.352 kg
  AFD (average feed intake) Day 0-42: 5.188 kg
  AFD (average feed intake) Day 11-20: 0.821 kg
  AFD (average feed intake) Day 11-25: 1.479 kg
  AFD (average feed intake) Day 20-25: 0.658 kg
  AFD (average feed intake) Day 20-42: 4.015 kg
  AFD (average feed intake) Day 25-42: 3.357 kg
  AWG (average weight gain) Day 0-11: 0.294 kg
  AWG (average weight gain) Day 0-42: 3.367^ab kg
  AWG (average weight gain) Day 11-20: 0.609 kg
  AWG (average weight gain) Day 11-25: 1.050 kg
  AWG (average weight gain) Day 20-25: 0.441 kg
  AWG (average weight gain) Day 20-42: 2.464^ab kg
  AWG (average weight gain) Day 25-42: 2.023^b kg
  EPEF (European production and efficiency factor) Day 20: 352.0
  EPEF (European production and efficiency factor) Day 42: 278.3
  MFCR (mortality adjusted FCR) Day 11-20: 1.348
  MFCR (mortality adjusted FCR) Day 11-25: 1.409
  MFCR (mortality adjusted FCR) Day 20-25: 1.495
  MFCR (mortality adjusted FCR) Day 25-42: 1.706
  MFCR (mortality adjusted feed conversion ratio) Day 0-11: 1.210^ab
  MFCR (mortality adjusted) Day 0-42: 1.560
  MFCR (mortality adjusted) Day 20-42: 1.665
  AFD (average feed intake) Day 0-20: 1.173 kg
  AWG (average weight gain) Day 0-20: 0.903 kg
  MFCR (mortality adjusted) Day 0-20: 1.303
[4]
  ABW (average body weight) Day 0: 0.041 kg
  ABW (average body weight) Day 11: 0.351 kg
  ABW (average body weight) Day 20: 0.991 kg
  ABW (average body weight) Day 25: 1.426 kg
  ABW (average body weight) Day 42: 3.464 kg
  AFD (average feed intake) Day 0-11: 0.360 kg
  AFD (average feed intake) Day 0-42: 5.201 kg
  AFD (average feed intake) Day 11-20: 0.841 kg
  AFD (average feed intake) Day 11-25: 1.526 kg
  AFD (average feed intake) Day 20-25: 0.685 kg
  AFD (average feed intake) Day 20-42: 4.001 kg
  AFD (average feed intake) Day 25-42: 3.315 kg
  AWG (average weight gain) Day 0-11: 0.310 kg
  AWG (average weight gain) Day 0-42: 3.423^b kg
  AWG (average weight gain) Day 11-20: 0.640 kg
  AWG (average weight gain) Day 11-25: 1.075 kg
  AWG (average weight gain) Day 20-25: 0.434 kg
  AWG (average weight gain) Day 20-42: 2.473^ab kg
  AWG (average weight gain) Day 25-42: 2.039^b kg
  EPEF (European production and efficiency factor) Day 20: 364.8
  EPEF (European production and efficiency factor) Day 42: 265.0
  MFCR (mortality adjusted FCR) Day 11-20: 1.343
  MFCR (mortality adjusted FCR) Day 11-25: 1.440
  MFCR (mortality adjusted FCR) Day 20-25: 1.599
  MFCR (mortality adjusted FCR) Day 25-42: 1.704
  MFCR (mortality adjusted feed conversion ratio) Day 0-11: 1.168^a
  MFCR (mortality adjusted) Day 0-42: 1.563
  MFCR (mortality adjusted) Day 20-42: 1.678
  AFD (average feed intake) Day 0-20: 1.201 kg
  AWG (average weight gain) Day 0-20: 0.951 kg
  MFCR (mortality adjusted) Day 0-20: 1.284
[5]
  ABW (average body weight) Day 0: 0.040 kg
  ABW (average body weight) Day 11: 0.325 kg
  ABW (average body weight) Day 20: 0.947 kg
  ABW (average body weight) Day 25: 1.388 kg
  ABW (average body weight) Day 42: 3.304 kg
  AFD (average feed intake) Day 0-11: 0.348 kg
  AFD (average feed intake) Day 0-42: 5.201 kg
  AFD (average feed intake) Day 11-20: 0.829 kg
  AFD (average feed intake) Day 11-25: 1.490 kg
  AFD (average feed intake) Day 20-25: 0.661 kg
  AFD (average feed intake) Day 20-42: 4.023 kg
  AFD (average feed intake) Day 25-42: 3.362 kg
  AWG (average weight gain) Day 0-11: 0.285 kg
  AWG (average weight gain) Day 0-42: 3.265^ab kg
  AWG (average weight gain) Day 11-20: 0.622 kg
  AWG (average weight gain) Day 11-25: 1.064 kg
  AWG (average weight gain) Day 20-25: 0.441 kg
  AWG (average weight gain) Day 20-42: 2.357^ab kg
  AWG (average weight gain) Day 25-42: 1.916^ab kg
  EPEF (European production and efficiency factor) Day 20: 354.5
  EPEF (European production and efficiency factor) Day 42: 276.2
  MFCR (mortality adjusted FCR) Day 11-20: 1.333
  MFCR (mortality adjusted FCR) Day 11-25: 1.406
  MFCR (mortality adjusted FCR) Day 20-25: 1.513
  MFCR (mortality adjusted FCR) Day 25-42: 1.793
  MFCR (mortality adjusted feed conversion ratio) Day 0-11: 1.236^b
  MFCR (mortality adjusted) Day 0-42: 1.612
  MFCR (mortality adjusted) Day 20-42: 1.739
  AFD (average feed intake) Day 0-20: 1.178 kg
  AWG (average weight gain) Day 0-20: 0.907 kg
  MFCR (mortality adjusted) Day 0-20: 1.302
Treatment groups 3, 5, 6, 7 and 8, challenged with dirty litter
  effect on MFCR at day 42 compared with positive control (FIG. 2): positive effect on MFCR
Treatment groups 3, 5, 6, 7 and 8, challenged with dirty litter containing Campylobacter
  effect on growth: average body weight at day 42 compared with positive control (FIG. 1): positive effect on growth
